Laboratory results reported in patent US8227453B2, “Pharmaceutical formulations and uses thereof in the treatment of female sexual dysfunction” (Emotional Brain B.V., priority 2004, dated 2012).
Entries after “also recorded” stand apart in the source; their conditions may differ.

Tests used:
[1] = typical value; cited from earlier work
[2] = tested on: women suffering from FSD; assay: Vaginal Pulse Amplitude (VPA) response to erotic film in women with FSD, placebo controlled cross-over; assay type: in vivo, human; settings: for Vaginal Pulse Amplitude during exposure to erotic stimuli (vaginal arousability) compared with placebo: testosterone 0.5 mg sublingual, Vardenafil 10 mg, four hours after medication; for increase in VPA between neutral and erotic films, before medication (trial 1) versus after medication (trial 4): within drug condition
Description: Fourteen women with a heterosexual orientation (mean age: 40.6 years; sd: 10.4; premenopausal n=8, postmenopausal n=6) who have been experiencing FSD (i.e., low sexual desire, low sexual arousal or decreased orgasm potency) for at least six months prior to study entry, participated in this study. Subjects in fertile age used contraceptives (IUDs, sterilization, oral contraceptives except contraceptives containing anti-androgens). A pregnancy test was part of the procedure. Subjects were interviewed and examined by a gynecologist to exclude pregnancy or breast feeding, vaginal infections, major operations to the vagina and/or vulva or unexplained gynecological complaints. […] Cardiovascular condition was tested and ECG was checked for significant abnormalities. Standard blood chemistry and hematology tests were performed. […] Subjects could not make appointments during their period of menstruation.
Each subject underwent the four different drug treatments (i.e., PDE5 inhibitor, testosterone, PDE5 inhibitor+testosterone and placebo) at four separate experimental days. The four experimental days were separated by at least a three-day period.
During each day of drug manipulation, subjects underwent the following measurements: • −1:00 hours: Emotional Stroop Task • −0:15 hours: Trial 1 • 0:00 hours: Intake drugs • 0:05 hours: Trial 2 • 2:45 hours: Trial 3 • 4:15 hours: Trial 4
Each day started with a physical examination (measurements of vital signs, blood pressure, heart rate, temperature and respiration rate). Blood samples (8 ml) were taken for hormone analyses. Subjects then were seated in the sound attenuated, dimly lit experimental room. In order to make this room less “sterile,” geographic posters were hung on the walls and an air perfumer was placed behind the subjects. The subjects then executed the emotional Stroop task (15 minutes). The experimenter brought the vaginal probe and the subject was left alone in the room to insert the probe. The subject was instructed to sit as quietly as possible while viewing the film fragments. A ten-minute neutral fragment was followed by a five-minute erotic film fragment. After these baseline measurements, the subjects took medication: testosterone (0.5 mg or placebo) sublingually, with cyclodextrins as carrier and Vardenafil (10 mg or placebo) hidden in a capsule. The medication was followed by another set of neutral (five minutes) and erotic (five minutes) film fragments. The subjects removed the vaginal probe and were taken to a waiting room for a pause of two hours. During this pause, they could consume their lunch. Unlimited coffee and tea were available. This pause was followed by a third set of neutral (five minutes) and erotic (five minutes) film fragments.
Again subjects had to wait for two hours so that the last VPA measurement was taken four hours after medication. This last film-trial (neutral, erotic film fragments) was followed by a second presentation of the emotional Stroop. The experimental day ended with a short physical examination including drawing of a blood sample (8 ml for hormone analyses) and collection of AE and SAE.
During the testosterone condition, one subject became nauseated watching the erotic film and decided not to participate further that day. For the psychophysiological evaluation, the VPA (Vaginal Pulse Amplitude) is used. The VPA reflects phasic changes in the blood volume corresponding with each heartbeat; higher levels indicate higher levels of blood flow. The dependent variable used is the amplitude of the pulse wave. Before the mean VPA was calculated, the raw signal (sample rate was 20 Hz) was digitally bandpass filtered with a Butterworth filter (−3 dB cutoff frequency range 0.7-1.5 Hz; 40 dB down/octave). Movement artifacts were detected by visual inspection of the signal and removed manually. Hereafter, the amplitude was measured as the distance between the top and bottom of a pulse wave. […]

[3] = tested on: women suffering from Female Sexual Dysfunction; assay: Sexual desire, genital sensations and subjective sexual arousal in women with FSD; assay type: in vivo, human
Description: Attentional engagement is an important function for normal human sexuality.

[4] = tested on: sexually functional women; settings: cited from earlier work
[5] = tested on: hypogonadotropic hypogonadal females; assay: Vaginal responsiveness during oral testosterone substitution; assay type: in vivo, human; settings: dosed each morning
Method: An important aspect of sexual motivation is physiological sexual responding. […] In both studies, subjects received testosterone each morning, but patients in the first experiment were tested in the afternoon and patients in the second experiment in the morning. The different outcomes on physiological responding between these experiments may be caused by a time-dependent effect of testosterone on vaginal arousal.

[6] = tested on: healthy sexually functional women; settings: 0.5 mg sublingual
Method: In a recently conducted experiment (not published) in healthy sexually functional women, we used a delayed measurement design in which subjects ingested one dosage of testosterone (0.5 mg sublingual) or placebo and after four hours, underwent fMRI while watching neutral and erotic videos. Hereafter, subjects were conducted to a laboratory where their VPA in response to neutral and erotic videos was measured.

[7] = tested on: sexually functional women; assay: Vaginal responsiveness to erotic films after a single sublingual dose in sexually functional women
[8] = tested on: women suffering from FSD
Description: An unmasked and a masked version of the Emotional Stroop Task comparing color-naming latencies on neutral and erotic words were used. In both the unmasked and the masked condition, eight erotic and neutral words are presented in different colors (i.e., red, green, blue and yellow). An extra set of stimuli consisting of letter strings was used for practice trials. Subjects were instructed to ignore the content of the words and to name the color of the words as quickly as possible (in the masked condition, the color of the mask has to be named). Each trial consisted of a fixation point which is shown for 750 ms, followed by the target stimulus (the colored neutral or erotic word). In the masked condition, the word picture is presented for about 24 ms and then masked by randomly cut, reassembled letters in the same color. A microphone connected to a voice-level detector was placed in front of the subject. Initiation of vocal response was registered by the computer's clock and terminated the target presentation (with a no-response maximum of 3000 ms). Thirty-two neutral words and thirty-two erotic words were presented blocked. The same words were used for each test, however, the sequence of words and colors differed all eight times this task was used.
To test for associations with changes in attentional processes, we used the StroopRT as the measurement point. StroopRT is the difference in mean reaction times on color naming of the neutral and the sexual words.

[9] = Plasma level of testosterone after sublingual administration; settings: single sublingual dose; of short duration
[10] = tested on: healthy sexually functional women; design: species or system human; settings: in vivo
Method: In a recently conducted experiment (not published) in healthy sexually functional women, we used a delayed measurement design in which subjects ingested one dosage of testosterone (0.5 mg sublingual) or placebo and after four hours, underwent fMRI while watching neutral and erotic videos. Hereafter, subjects were conducted to a laboratory where their VPA in response to neutral and erotic videos was measured. […] Because of testosterone's delayed effect on enhancing VPA, we expected enhancement of these “erotic” structures in this fMRI study.

For CCCc1nc(C)c2c(=O)nc(-c3cc(S(=O)(=O)N4CCN(CC)CC4)ccc3OCC)[nH]n12.Cl [Vardenafil, piperazine, 1-[[3-(1,4-dihydro-5-methyl-4-oxo-7-propylimidazo[5,1-f][1,2,4]triazin-2-yl)-4-ethoxyphenyl]sulfonyl]-4-ethyl-, monohydrochloride], the “time to peak plasma concentration after administration” value [1] is given as “about one”, the “Vaginal Pulse Amplitude during exposure to erotic stimuli (vaginal arousability) compared with placebo” value ([2]; women with FSD, listed as PDE5 inhibitor, monohydrochloride) is given as “no effect” and the “Vaginal Pulse Amplitude during exposure to erotic stimuli (vaginal arousability) compared with placebo” value ([2]; women with FSD, monohydrochloride) is given as “did not lead to a significant difference”. For the same compound, the “increase in VPA between neutral and erotic films, before medication (trial 1) versus after medication (trial 4)” value ([2]; women with FSD) was “insignificant” and the “sexual desire, genital sensations / subjective sexual arousal compared with placebo” value [3] was “no effect”.

In the case of CCCc1nn(C)c2c(=O)[nH]c(-c3cc(S(=O)(=O)N4CCN(C)CC4)ccc3OCC)nc12.O=C(O)CC(O)(CC(=O)O)C(=O)O [sildenafil, 1-[[3-(6,7-dihydro-1-methyl-7-oxo-3-propyl-1Hpyrazolo[4,3-d]pyrimidin-5-yl)-4-ethoxyphenyl]sulfonyl]-4-methylpiperazine citrate], the sexual performance [4] is given as “improves”.

With CCCCCCCCCCC(=O)O[C@H]1CC[C@H]2[C@@H]3CCC4=CC(=O)CC[C@]4(C)[C@H]3CC[C@]12C [testosterone undecanoate] the “vaginal responsiveness, first group” value ([5]; 40 mg orally per day, eight weeks, tested in the afternoon) was “enhanced” and the “vaginal responsiveness, another group (unpublished data)” value ([5]; tested in the morning) was “not found”.

For C[C@]12CC[C@H]3[C@@H](CCC4=CC(=O)CC[C@@]43C)[C@@H]1CC[C@@H]2O [testosterone, 17-β-hydroxyandrost-4-en-3-one], the “relative change in VPA as compared with the placebo, after fMRI procedure” value [6] was “smaller”, the “vaginal responsiveness when exposed to visual sexual stimuli” value ([7]; eight sexually functional women, single sublingual dose versus placebo) was “striking increase” and the “time lag between plasma testosterone peak and increase in vaginal responsiveness” value ([7]; sexually functional women, sublingual) was “three to four and a half”. For the same compound, the “StroopRT (attention for sexual stimuli), not-abused subjects” value ([8]; masked condition, decrease = attention for sexual stimuli increases) was “decreases”, the “StroopRT (attentional bias for sexual stimuli), sexually abused subjects” value ([8]; masked condition, increase = bias away from sexual stimuli) was “increases” and the “attentional engagement (or withdrawal) for sexual cues, as compared with placebo and/or a PDE5 inhibitor” value ([8]; women with FSD) was “increase”. The “plasma levels of testosterone after intake” value [9] was “sharp increase”, the “activation of septum and left dorsolateral PFC (fMRI)” value [10] was “very significant increase” and the “VPA to erotic stimuli over trials, sexually abused subjects” value ([2]; women with FSD sexually abused during childhood, with or without testosterone) was “no increase”. For the same compound, the “VPA response to the erotic film, not-abused subjects, testosterone versus no-testosterone conditions” value ([2]; women with FSD, not abused) was “increases”, the “increase in VPA from before to after measurement, drug conditions containing the steroid versus without the steroid” value ([2]; women with FSD, interaction F(1.12)=5.75, p<0.04, pooled steroid conditions) was “significantly higher” and the “Vaginal Pulse Amplitude during exposure to erotic stimuli (vaginal arousability) compared with placebo” value ([2]; women with FSD) was “no effect; also recorded: insufficient for a significant increase”. For the same compound, the “increase in VPA between neutral and erotic films, before medication (trial 1) versus after medication (trial 4)” value ([2]; women with FSD) was “insignificant” and the “sexual desire, genital sensations / subjective sexual arousal compared with placebo” value [3] was “no effect”.
